Like-named read-outs stand apart in the source and are kept apart here.
How the values were obtained:
[1] = test system: Mycosphaerella graminicola; Anamorph: Septoria tritici; assay: Fungicidal activity: Leaf Blotch of Wheat (SEPTTR); format: in vivo; details: Zymoseptoria tritici; for pest or weed control at 121.5 g/ha: Low Volume (121.5 g/H)
Procedure, shortened: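 Compounds were dissolved in acetone, diluted with nine volumes of water containing 110 ppm Triton X-100, and sprayed to run-off on first-leaf Yuma wheat seedlings inoculated with Septoria tritici spores before or after treatment. Plants were held in a dew chamber, then a 20° C. greenhouse. Percent control was derived from disease severity relative to untreated plants.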

Puccinia triticina = assay: Fungicidal activity: Wheat Brown Rust (PUCCRT); format: in vivo; details: for pest or weed control at 121.5 g/ha: Low Volume (121.5 g/H); for pest or weed control at 100 µg/mL: High Volume (100 ppm)
Procedure, shortened: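 Percent control of brown rust was derived from 0-100% severity on treated versus untreated first leaves. Yuma wheat seedlings were spray-treated to run-off (acetone/water, Triton X-100) and inoculated with P. triticina spores before or after treatment, then held overnight in dark dew at 22° C and moved to a 24° C greenhouse.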

[2] = 24 h, 1 Day Protectant, wheat leaf blotch, read-out: SEPTTR 1 DP disease control
[3] = 72 h, 3 Day Curative, wheat leaf blotch, read-out: SEPTTR 3 DC disease control
[4] = 24 h, 1 Day Protectant, read-out: PUCCRT 1 DP disease control
[5] = 72 h, 3 Day Curative, read-out: PUCCRT 3 DC disease control
[6] = 24 h, High Volume (100 ppm), 1 Day Protectant, wheat leaf blotch, read-out: SEPTTR 1 DP disease control
[7] = 72 h, High Volume (100 ppm), 3 Day Curative, wheat leaf blotch, read-out: SEPTTR 3 DC disease control

SMILES | pest or weed control at 121.5 g/ha [1, 2] [%] | pest or weed control at 121.5 g/ha [1, 3] [%] | pest or weed control at 121.5 g/ha (Puccinia triticina; [4]) [%] | pest or weed control at 121.5 g/ha (Puccinia triticina; [5]) [%] | melting point | pest or weed control at 100 µg/mL [1, 6] [%] | pest or weed control at 100 µg/mL [1, 7] [%] | pest or weed control at 100 µg/mL (Puccinia triticina; [4]) [%] | pest or weed control at 100 µg/mL (Puccinia triticina; [5]) [%] | pest or weed control at 100 µg/mL ([1]; 24 h, read-out: SEPTTR 1 DP disease control) [%] | pest or weed control at 100 µg/mL ([1]; 72 h, read-out: SEPTTR 3 DC disease control) [%]
COc1ccnc(C(=O)N[C@H]2COC[C@H](Cc3ccccc3)[C@@H](COc3ccccc3)[C@H](C)OC2=O)c1OC(C)=O [compound 95, 2-(((3S,7R,8S,9S)-7-benzyl-9-methyl-2-oxo-8-(phenoxymethyl)-1,5-dioxonan-3-yl)carbamoyl)-4-methoxypyridin-3-yl acetate] | > 70 | > 70 | > 70 | > 70 | 70 to 74 °C | – | – | – | – | – | –
COc1ccnc(C(=O)N[C@H]2COC[C@H](Cc3ccc(C(F)(F)F)cc3)[C@@H](CC(C)C)[C@H](C)OC2=O)c1OC(C)=O [compound 72] | > 70 | > 70 | > 70 | > 70 | 75 to 79 °C | – | – | – | – | – | –
COc1ccnc(C(=O)N[C@H]2COC[C@H](CC3CCCCC3)[C@@H](CC3CCCCC3)[C@H](C)OC2=O)c1O [compound 119] | – | – | – | – | 69 to 75 °C | > 70 | < 70 | > 70 | > 70 | – | –
COc1ccnc(C(=O)N[C@H]2COC[C@H](CCC(C)C)[C@@H](C3CCCC3)[C@H](C)OC2=O)c1O [compound 150] | – | – | – | – | 38 to 43 °C | > 70 | > 70 | > 70 | > 70 | – | –
COc1ccnc(C(=O)N[C@H]2COC[C@H](CCC(C)C)[C@@H](C3CCCC3)[C@H](C)OC2=O)c1OC(C)=O [compound 91] | > 70 | > 70 | > 70 | < 70 | 57 to 62 °C | – | – | – | – | – | –
COc1ccnc(C(=O)N[C@H]2COC[C@H](Cc3ccc(Cl)cc3)[C@@H](C3CCCC3)[C@H](C)OC2=O)c1OCOC(=O)C(C)C [compound 89] | > 70 | > 70 | > 70 | < 70 | 54 to 58 °C | – | – | – | – | – | –
COc1ccnc(C(=O)N[C@H]2COC[C@H](CCCc3ccccc3)[C@@H](CCc3ccccc3)[C@H](C)OC2=O)c1O [compound 139] | – | – | – | – | 48 to 52 °C | < 70 | < 70 | > 70 | < 70 | – | –
COc1ccnc(C(=O)N[C@H]2COC[C@H](Cc3ccccc3)[C@@H](COc3ccccc3)[C@H](C)OC2=O)c1O [compound 151] | – | – | – | – | 68 to 73 °C | > 70 | > 70 | > 70 | < 70 | – | –
COc1ccnc(C(=O)N[C@H]2COC[C@H](CCc3ccccc3)[C@@H](CCc3ccccc3)[C@H](C)OC2=O)c1OCOC(C)=O [compound 4] | > 70 | > 70 | > 70 | < 70 | 42 to 47 °C | > 70 | > 70 | > 70 | > 70 | – | –
COCCC(=O)Oc1c(OC)ccnc1C(=O)N[C@H]1COC[C@H](Cc2ccc(Cl)cc2)[C@@H](C2CCCC2)[C@H](C)OC1=O [compound 106, 2-(((3S,7R,8R,9S)-7-(4-chlorobenzyl)-8-cyclopentyl-9-methyl-2-oxo-1,5-dioxonan-3-yl)carbamoyl)-4-methoxypyridin-3-yl 3-methoxypropanoate] | > 70 | > 70 | > 70 | > 70 | 55 to 60 °C | – | – | – | – | – | –
COc1ccnc(C(=O)N[C@H]2COC[C@H](Cc3ccc(Cl)cc3)[C@@H](C3CCCC3)[C@H](C)OC2=O)c1O [compound 149] | – | – | – | – | 80 to 84 °C | > 70 | > 70 | > 70 | > 70 | – | –
COc1ccnc(C(=O)N[C@H]2COC[C@H](CC3CC3)[C@@H](Cc3ccccc3)[C@H](C)OC2=O)c1OCOC(C)=O [compound 68] | > 70 | < 70 | > 70 | < 70 | 41 to 45 °C | – | – | – | – | – | –
COc1ccnc(C(=O)N[C@H]2COC[C@H](Cc3ccccc3)[C@@H](c3ccccc3)[C@H](C)OC2=O)c1O [compound 132] | – | – | – | – | 185 to 190 °C | > 70 | > 70 | > 70 | > 70 | – | –
COc1ccnc(C(=O)N[C@H]2COC[C@H](Cc3ccccc3)[C@@H](Cc3ccccc3)[C@H](C)OC2=O)c1O [Cmpd. 112, N-((3S,7R,8R,9S)-7,8-dibenzyl-9-methyl-2-oxo-1,5-dioxonan-3-yl)-3-hydroxy-4-methoxypicolinamide] | – | – | – | – | 69 to 72 °C | – | – | < 70 | < 70 | < 70 | < 70
COc1cccc(C[C@H]2COC[C@H](NC(=O)c3nccc(OC)c3O)C(=O)O[C@@H](C)[C@@H]2Cc2cccc(OC)c2)c1 [compound 124] | – | – | – | – | 62 to 65 °C | < 70 | < 70 | > 70 | < 70 | – | –
COc1ccnc(C(=O)N[C@H]2COC[C@H](Cc3ccc(Cl)cc3)[C@@H](Cc3ccc(OC(F)(F)F)cc3)[C@H](C)OC2=O)c1OCOC(C)=O [compound 58] | > 70 | > 70 | > 70 | < 70 | 158 to 161 °C | – | – | – | – | – | –
COc1ccnc(C(=O)N[C@H]2COC[C@H](CCc3ccccc3)[C@@H](CCc3ccccc3)[C@H](C)OC2=O)c1O [compound 113] | – | – | – | – | 52 to 56 °C | > 70 | > 70 | > 70 | < 70 | – | –
CCC[C@H]1COC[C@H](NC(=O)c2nccc(OC)c2OCOC(C)=O)C(=O)O[C@@H](C)[C@@H]1Cc1ccc(F)cc1 [compound 108] | > 70 | > 70 | > 70 | > 70 | 38 to 43 °C | – | – | – | – | – | –
C[C@@H]1OC(=O)[C@@H](N)COC[C@H](CC2CCCC2)[C@H]1CC1CCCC1.Cl | – | – | – | – | 164 to 167 °C | – | – | – | – | – | –
C=C(C)COC[C@@H]1[C@@H](Cc2ccccc2)COC[C@H](NC(=O)c2nccc(OC)c2OCOC(C)=O)C(=O)O[C@H]1C [compound 11] | – | – | – | – | 35 to 40 °C | – | – | – | – | – | –
CC(C)COC[C@@H]1[C@@H](Cc2ccccc2)COC[C@H](N)C(=O)O[C@H]1C.Cl | – | – | – | – | 196 to 199 °C | – | – | – | – | – | –
CC(C)C[C@@H]1[C@@H](Cc2ccc(C(F)(F)F)cc2)COC[C@H](N)C(=O)O[C@H]1C.Cl | – | – | – | – | 163 to 168 °C | – | – | – | – | – | –
C[C@@H]1OC(=O)[C@@H](NC(=O)OC(C)(C)C)COC[C@H](Cc2ccccc2)[C@H]1Cc1ccc(OC(F)(F)F)cc1 [compound 223] | – | – | – | – | 47 to 51 °C | – | – | – | – | – | –
C=C[C@@H]1[C@@H](Cc2ccccc2)COC[C@H](NC(=O)c2nccc(OC)c2O)C(=O)O[C@H]1C [compound 118] | – | – | – | – | 57 to 63 °C | – | – | – | – | – | –
C=C(C)CCC[C@@H]1[C@@H](Cc2ccccc2)COC[C@H](N)C(=O)O[C@H]1C.Cl | – | – | – | – | 184 to 187 °C (dec.) | – | – | – | – | – | –

— US9955691B2, “Macrocyclic picolinamides as fungicides” (DOW AGROSCIENCES LLC, priority 2014, dated 2018)
